Drawing on US12011444B2, “N-substituted indole derivatives as PGE2 receptor modulators” (Idorsia Pharmaceuticals Ltd, priority 2015, dated 2024), this text covers IC50 for 28 compounds.

SMILES strings stand for the structures.

One test has as its target PTGER2 (EP2) (Homo sapiens (Human), UniProt P43116). The experiment in a line: hEP2 b-arrestin assay (PathHunter HEK 293 PTGER2 b-arrestin cells). It counts as cell-based. The note with it: hEP2 b-arrestin assay (values without asterisk). In a few lines:
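HEK293 cells expressing ProLink-tagged EP2 and EA-fused β-arrestin 2 (enzyme fragment complementation) were seeded 24 h, pre-incubated with compound 15 min at 37 °C, then stimulated with 5 μM PGE2 (final) for 120 min.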

The target in another test is PTRGER4 (EP4) (Homo sapiens (Human), UniProt P35408). The experiment in a line: hEP4 b-arrestin assay (PathHunter HEK 293 PTGER4 b-arrestin cells). The class given is cell-based. The note with it: hEP4 b-arrestin assay (values without asterisk). In short, it runs like this: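 Stably transfected HEK293 cells carrying EP4–ProLink and β-arrestin 2–EA (β-gal fragment complementation), pre-incubated with compound 15 min at 37 °C, then stimulated with PGE2 (20 nM final) for 120 min at 37 °C. Chemiluminescence read after 1 h detection reagent at room temperature; activity per concentration expressed as percent of DMSO control.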
PTRGER4 (EP4), sequence (P35408 whole entry, looked up, the tested form may be a part): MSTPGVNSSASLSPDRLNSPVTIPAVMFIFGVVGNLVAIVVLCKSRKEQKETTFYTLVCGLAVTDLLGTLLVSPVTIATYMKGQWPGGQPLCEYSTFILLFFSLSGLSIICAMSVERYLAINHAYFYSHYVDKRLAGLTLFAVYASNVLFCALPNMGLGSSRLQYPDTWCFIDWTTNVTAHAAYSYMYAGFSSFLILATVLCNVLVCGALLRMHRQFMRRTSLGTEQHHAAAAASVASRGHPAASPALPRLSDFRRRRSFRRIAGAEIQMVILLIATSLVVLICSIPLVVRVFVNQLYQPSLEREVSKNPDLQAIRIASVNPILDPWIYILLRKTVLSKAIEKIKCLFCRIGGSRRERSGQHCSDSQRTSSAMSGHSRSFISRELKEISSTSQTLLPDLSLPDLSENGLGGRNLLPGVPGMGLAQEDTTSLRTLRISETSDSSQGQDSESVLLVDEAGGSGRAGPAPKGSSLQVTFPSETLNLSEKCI

One may read the IC50 as the concentration at which inhibition is half-maximal. Lower therefore signals higher potency.

PTGER2 (EP2), sequence (P43116 whole entry, the tested form may be a part): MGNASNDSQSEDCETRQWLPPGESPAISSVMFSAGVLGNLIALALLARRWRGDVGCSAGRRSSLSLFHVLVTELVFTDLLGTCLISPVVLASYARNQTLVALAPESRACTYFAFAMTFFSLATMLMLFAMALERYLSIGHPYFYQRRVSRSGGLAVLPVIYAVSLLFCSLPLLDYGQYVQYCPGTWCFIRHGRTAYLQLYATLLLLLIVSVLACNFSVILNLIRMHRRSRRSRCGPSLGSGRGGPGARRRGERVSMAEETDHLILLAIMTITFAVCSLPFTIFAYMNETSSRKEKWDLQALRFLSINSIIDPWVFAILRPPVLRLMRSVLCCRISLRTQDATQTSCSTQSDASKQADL

`CCOc1cc(-c2cc(NCCn3c(C#N)cc4c(OC)cc(F)c(F)c43)ncn2)ccc1OCC(=O)O` [Example 944, (4-{6-[2-(2-Cyano-6,7-difluoro-4-methoxy-indol-1-yl)-ethylamino]-pyrimidin-4-yl}-2-ethoxy-phenoxy)-acetic acid]: the results for the IC50 against PTGER2 (EP2) and on PTRGER4 (EP4) were 16 nM and 7 nM, respectively.

For `CCOc1cc(-c2cc(NCCn3c(C#N)cc4c(OC)cc(F)c(F)c43)ncn2)ccc1NCC(=O)O` [Example 945, (4-{6-[2-(2-Cyano-6,7-difluoro-4-methoxy-indol-1-yl)-ethylamino]-pyrimidin-4-yl}-2-ethoxy-phenylamino)-acetic acid], the IC50 against PTGER2 (EP2) was 9 nM; at PTRGER4 (EP4) it was 2 nM.

In the case of `COc1ccc(F)c2c1cc(C#N)n2CCNc1cc(-c2ccc(C(=O)O)c(CC(C)C)c2)ncn1` [Example 946, 4-{6-[2-(2-Cyano-7-fluoro-4-methoxy-indol-1-yl)-ethylamino]-pyrimidin-4-yl}-2-isobutyl-benzoic acid], the IC50 against PTGER2 (EP2) amounted to 54 nM; on PTRGER4 (EP4), 10 nM.

In the case of `CCCc1cc(-c2cc(NCCn3c(C#N)cc4c(OC)ccc(F)c43)ncn2)ccc1C(=O)O` [Example 947, 4-{6-[2-(2-Cyano-7-fluoro-4-methoxy-indol-1-yl)-ethylamino]-pyrimidin-4-yl}-2-propyl-benzoic acid], the IC50 against PTGER2 (EP2) was 30 nM; on PTRGER4 (EP4), 16 nM.

For `CCc1cc(-c2cc(NCCn3c(C#N)cc4c(OC)ccc(F)c43)ncn2)ccc1C(=O)O` [Example 948, 4-{6-[2-(2-Cyano-7-fluoro-4-methoxy-indol-1-yl)-ethylamino]-pyrimidin-4-yl}-2-ethyl-benzoic acid], the IC50 on PTGER2 (EP2) worked out at 50 nM; against PTRGER4 (EP4), 45 nM.

Turning to `COc1ccc(F)c2c1cc(C#N)n2CCNc1cc(-c2ccc(C(=O)O)c(OCC(C)C)c2)ncn1` [Example 949, 4-{6-[2-(2-Cyano-7-fluoro-4-methoxy-indol-1-yl)-ethylamino]-pyrimidin-4-yl}-2-isobutoxy-benzoic acid], the IC50 amounted to 7 nM against PTGER2 (EP2) and 14 nM against PTRGER4 (EP4).

Turning to `CCCOc1cc(-c2cc(NCCn3c(C#N)cc4c(OC)ccc(F)c43)ncn2)ccc1C(=O)O` [Example 950, 4-{6-[2-(2-Cyano-7-fluoro-4-methoxy-indol-1-yl)-ethylamino]-pyrimidin-4-yl}-2-propoxy-benzoic acid], the half-maximal inhibitory concentration (IC50) against PTGER2 (EP2) worked out at 18 nM; against PTRGER4 (EP4) it was 42 nM.

Regarding `CCSc1cc(-c2cc(NCCn3c(C#N)cc4c(C)ccc(F)c43)ncn2)ccc1C(=O)O` [Example 951, 4-{6-[2-(2-Cyano-7-fluoro-4-methyl-indol-1-yl)-ethylamino]-pyrimidin-4-yl}-2-ethylsulfanyl-benzoic acid], the IC50 against PTGER2 (EP2) came out at 15 nM; on PTRGER4 (EP4), 27 nM.

As to `CCSc1cc(-c2cc(NCCn3c(C#N)cc4c(OC)cccc43)ncn2)ccc1C(=O)O` [Example 952, 4-{6-[2-(2-Cyano-4-methoxy-indol-1-yl)-ethylamino]-pyrimidin-4-yl}-2-ethylsulfanyl-benzoic acid], the values for the IC50 against PTGER2 (EP2) and against PTRGER4 (EP4) were 5 nM and 21 nM, respectively.

For `CCSc1cc(-c2cc(NCCn3c(C#N)cc4c(OC)ccc(F)c43)ncn2)ccc1C(=O)O` [Example 953, 4-{6-[2-(2-Cyano-7-fluoro-4-methoxy-indol-1-yl)-ethylamino]-pyrimidin-4-yl}-2-ethylsulfanyl-benzoic acid], the IC50 at PTGER2 (EP2) came out at 5 nM; against PTRGER4 (EP4), 21 nM.

As to `CCSc1cc(-c2cc(NCCn3c(C#N)cc4c(OC)cc(F)cc43)ncn2)ccc1C(=O)O` [Example 954, 4-{6-[2-(2-Cyano-6-fluoro-4-methoxy-indol-1-yl)-ethylamino]-pyrimidin-4-yl}-2-ethylsulfanyl-benzoic acid], the IC50 at PTGER2 (EP2) was determined as 15 nM; against PTRGER4 (EP4), 41 nM.

For the compound `CCOc1cc(-c2cc(NCCn3c(C#N)cc4c(C)cc(F)c(F)c43)ncn2)ccc1C(=O)O` [Example 956, 4-{6-[2-(2-Cyano-6,7-difluoro-4-methyl-indol-1-yl)-ethylamino]-pyrimidin-4-yl}-2-ethoxy-benzoic acid], the values for the IC50 at PTGER2 (EP2) and at PTRGER4 (EP4) were 21 nM and 37 nM, respectively.

Consider `CCOc1cc(-c2cc(NCCn3c(C#N)cc4c(OC)cc(F)c(F)c43)ncn2)ccc1C(=O)O` [Example 957, 4-{6-[2-(2-Cyano-6,7-difluoro-4-methoxy-indol-1-yl)-ethylamino]-pyrimidin-4-yl}-2-ethoxy-benzoic acid], for which the IC50 against PTGER2 (EP2) came out at 56 nM; at PTRGER4 (EP4) it was 54 nM.

For the compound `CNc1cc(-c2cc(NCCn3c(C#N)cc4c(OC)cccc43)ncn2)ccc1C(=O)O` [Example 958, 4-{6-[2-(2-Cyano-4-methoxy-indol-1-yl)-ethylamino]-pyrimidin-4-yl}-2-methylamino-benzoic acid], the IC50 against PTGER2 (EP2) amounted to 13 nM; on PTRGER4 (EP4), 18 nM.

As to `COC(=O)c1ccc2cc(-c3cc(NCCn4c(C#N)cc5c(OC)ccc(F)c54)ncn3)[nH]c2c1` [Example 959, 2-{6-[2-(2-Cyano-7-fluoro-4-methoxy-indol-1-yl)-ethylamino]-pyrimidin-4-yl}-1H-indole-6-carboxylic acid methyl ester], the results for the IC50 on PTGER2 (EP2) and against PTRGER4 (EP4) were 3 nM and 137 nM, respectively.

On to `COc1ccc(F)c2c1cc(C#N)n2CCNc1cc(-c2cc3cc(C(=O)O)ccc3[nH]2)ncn1` [Example 960, 2-{6-[2-(2-Cyano-7-fluoro-4-methoxy-indol-1-yl)-ethylamino]-pyrimidin-4-yl}-1H-indole-5-carboxylic acid], for which the IC50 worked out at 9 nM against PTGER2 (EP2) and 4 nM on PTRGER4 (EP4).

In the case of `COc1ccc(F)c2c1cc(C#N)n2CCNc1cc(-c2cc3ccccc3[nH]2)ncn1` [Example 961, 7-Fluoro-1-{2-[6-(1H-indol-2-yl)-pyrimidin-4-ylamino]-ethyl}-4-methoxy-1H-indole-2-carbonitrile], the IC50 on PTGER2 (EP2) amounted to 12 nM; on PTRGER4 (EP4) it was 34 nM.

On to `COC(=O)c1ccc2[nH]c(-c3cc(NCCn4c(C#N)cc5c(OC)ccc(F)c54)ncn3)cc2c1` [Example 962, 2-{6-[2-(2-Cyano-7-fluoro-4-methoxy-indol-1-yl)-ethylamino]-pyrimidin-4-yl}-1H-indole-5-carboxylic acid methyl ester], for which the IC50 against PTGER2 (EP2) turned out to be 3 nM; against PTRGER4 (EP4), 11 nM.

For the compound `COCCOc1ccc(-c2cc(NCCn3c(C#N)cc4c(OC)ccc(F)c43)ncn2)cc1` [Example 963, 7-Fluoro-4-methoxy-1-(2-{6-[4-(2-methoxy-ethoxy)-phenyl]-pyrimidin-4-ylamino}-ethyl)-1H-indole-2-carbonitrile], the values for the IC50 against PTGER2 (EP2) and on PTRGER4 (EP4) were 194 nM and 126 nM, respectively.

In the case of `COc1ccc(F)c2c1cc(C#N)n2CCNc1cc(-c2ccc(OCCO)cc2)ncn1` [Example 964, 7-Fluoro-1-(2-{6-[4-(2-hydroxy-ethoxy)-phenyl]-pyrimidin-4-ylamino}-ethyl)-4-methoxy-1H-indole-2-carbonitrile], the results for the IC50 on PTGER2 (EP2) and against PTRGER4 (EP4) were 41 nM and 22 nM, respectively.

Take `COc1ccc(F)c2c1cc(C#N)n2CCNc1cc(-c2ccc3cc[nH]c3c2)ncn1` [Example 966, 7-Fluoro-1-{2-[6-(1H-indol-6-yl)-pyrimidin-4-ylamino]-ethyl)-4-methoxy-1H-indole-2-carbonitrile]: the results for the IC50 against PTGER2 (EP2) and at PTRGER4 (EP4) were 14 nM and 31 nM, respectively.

`COc1ccc(F)c2c1cc(C#N)n2CCNc1cc(-c2c[nH]c3cnccc23)ncn1` [Example 967, 7-Fluoro-4-methoxy-1-{2-[6-(1H-pyrrolo[2,3-c]pyridin-3-yl)-pyrimidin-4-ylamino]-ethyl}-1H-indole-2-carbonitrile]: the figures for the IC50 on PTGER2 (EP2) and against PTRGER4 (EP4) were 6 nM and 17 nM, respectively.

Take `COc1ccc(F)c2c1cc(C#N)n2CCNc1cc(-c2c[nH]c3ccccc23)ncn1` [Example 968, 7-Fluoro-1-{2-[6-(1H-indol-3-yl)-pyrimidin-4-ylamino]-ethyl)-4-methoxy-1H-indole-2-carbonitrile]: the values for the IC50 on PTGER2 (EP2) and on PTRGER4 (EP4) were 4 nM and 15 nM, respectively.

As to `COc1ccc(F)c2c1cc(C#N)n2CCNc1cc(-c2cccc3[nH]ccc23)ncn1` [Example 969, 7-Fluoro-1-{2-[6-(1H-indol-4-yl)-pyrimidin-4-ylamino]-ethyl)-4-methoxy-1H-indole-2-carbonitrile], the IC50 at PTGER2 (EP2) amounted to 56 nM; against PTRGER4 (EP4), 25 nM.

As to `COc1ccc(F)c2c1cc(C#N)n2CCNc1cc(-c2ccc3c(c2)CNC(=O)N3)ncn1` [Example 970, 7-Fluoro-4-methoxy-1-{2-[6-(2-oxo-1,2,3,4-tetrahydro-quinazolin-6-yl)-pyrimidin-4-ylamino]-ethyl)-1H-indole-2-carbonitrile], the IC50 was 31 nM against PTGER2 (EP2) and 27 nM on PTRGER4 (EP4).

Regarding `COc1ccc(F)c2c1cc(C#N)n2CCNc1cc(-c2ccc(NC=O)cc2)ncn1` [Example 971, N-(4-{6-[2-(2-Cyano-7-fluoro-4-methoxy-indol-1-yl)-ethylamino]-pyrimidin-4-yl}-phenyl)-formamide], the values for the IC50 against PTGER2 (EP2) and against PTRGER4 (EP4) were 39 nM and 24 nM, respectively.

As for `COc1ccc(F)c2c1cc(C#N)n2CCNc1cc(-c2ccc3[nH]c(=O)oc3c2)ncn1` [Example 972, 7-Fluoro-4-methoxy-1-{2-[6-(2-oxo-2,3-dihydro-benzooxazol-6-yl)-pyrimidin-4-ylamino]-ethyl}-1H-indole-2-carbonitrile], the IC50 was determined as 6 nM at PTGER2 (EP2) and 18 nM against PTRGER4 (EP4).

Take `COc1ccc(F)c2c1cc(C#N)n2CCNc1cc(-c2ccc3oc(=O)n(C)c3c2)ncn1` [Example 973, 7-Fluoro-4-methoxy-1-{2-[6-(3-methyl-2-oxo-2,3-dihydro-benzooxazol-5-yl)-pyrimidin-4-ylamino]-ethyl}-1H-indole-2-carbonitrile]: the figures for the IC50 at PTGER2 (EP2) and against PTRGER4 (EP4) were 15 nM and 49 nM, respectively.
